Reference: ChEMBL document CHEMBL1142592, “Additional pyrrolomycins from cultures of Streptomyces fumanus” (2005)
In brackets after ≈: the same amount, converted by molar mass.

Assays:
Format in all cases: functional
[1] = system: Staphylococcus aureus; assay: Antimicrobial activity against wild type Staphylococcus aureus by agar dilution method
[2] = system: Escherichia coli; assay: Antimicrobial activity against wild type Escherichia coli by agar dilution method
[3] = system: Staphylococcus aureus; assay: Antimicrobial activity against methicillin-resistant Staphylococcus aureus by agar dilution method
[4] = system: Escherichia coli; assay: Antimicrobial activity against permeability mutant Escherichia coli imp by agar dilution method
[5] = system: Enterococcus faecium; assay: Antimicrobial activity against vancomycin-resistant Enterococcus faecium by agar dilution method

Row | Compound | MIC [1] | MIC [2] | MIC [3] | MIC [4] | MIC [5]
1 | COc1c(Cl)cc(Cl)cc1[C@H](O)c1[nH]c(Cl)c(Cl)c1[N+](=O)[O-] [PYRROLOMYCIN H] | 1 µg/mL (≈ 2.59 µM) | 128 µg/mL (≈ 332 µM) | 2 µg/mL (≈ 5.18 µM) | 4 µg/mL (≈ 10.4 µM) | 
2 | COc1c(Cl)cc(Cl)cc1C(=O)c1[nH]c(Cl)c(Cl)c1Cl [PYRROLOMYCIN J] | 1 µg/mL (≈ 2.68 µM) | > 128 µg/mL | 2 µg/mL (≈ 5.36 µM) | 8 µg/mL (≈ 21.4 µM) | 
3 | O=[N+]([O-])c1c([C@@H](O)c2cc(Cl)cc(Cl)c2O)[nH]c(Cl)c1Cl [PYRROLOMYCIN G] | 8 µg/mL (≈ 21.5 µM) | > 128 µg/mL | 8 µg/mL (≈ 21.5 µM) | 32 µg/mL (≈ 86 µM) | 8 µg/mL (≈ 21.5 µM)
